From patent US6908734B2, “Sulfated CCR5 peptides for HIV-1 infection” (priority 2000, dated 2005) come the findings set out here.

Test [1] addresses T1, gp120JR-FL/CD4-IgG2 binding to the sulfopeptide 2-18 (Homo sapiens, UniProt P51681).
T1 construct: a peptide spanning CCR5 residues 2-18 and containing sulfotyrosines in positions 10 and 14; host or cells: peptide synthetic
Briefly: Competition ELISA: gp120JR-FL/CD4-IgG2 binding to sulfopeptide 2-18. Set-up: species or system HIV-1. Conditions: complex 1 nM, up to supraphysiologic concentrations. As to the method:
In a competition ELISA, peptides were captured onto the plates as described above. Inhibitor or assay buffer was added for 1 h prior to addition of gp120JR-FL/CD4-IgG2 complex (1 nM) for an additional h at room temperature. The assay was then completed as described above. Direct binding of anti-CCR5 murine MAbs to the peptides was examined as described above except that MAb was substituted for gp120/CD4-IgG2 complex and a goat anti-mouse HRP-coupled antibody was used for detection.
(In general: An ELISA detects its analyte on a solid surface through an enzyme-linked reagent.)

Test [2] concerns gp120JR-FL/CD4-IgG2 complex binding to CCR5. The experiment in a line: Inhibition of gp120JR-FL/CD4-IgG2 complex binding to L1.2-CCR5+ cells (flow cytometry). Type of test: cell-based, HIV-1. The following applies: gp120 100 nM, biotinylated CD4-IgG2 50 nM, different concentrations of peptide. As to the method:
A gp120/CD4 complex formed from monomeric gp120 (100 nM) and biotinylated CD4-IgG2 (50 nM) was added to 1×10^6 L1.2-CCR5^+ cells in the presence of different concentrations of peptide (Olson et al. J. Virol. 73:4145, 1999). CD4-IgG2 is tetrameric and therefore binds four molecules of gp120, which increases binding of the complex to CCR5 (Allaway et al. AIDS Res. Hum. Retroviruses 11:533, 1995). The mean fluorescence intensity (m.f.i.) was measured by flow cytometry after addition of phycoerythrin (PE)-labeled streptavidin (Becton Dickinson, San Jose, Calif.). Inhibition of gp120/CCR5 binding was calculated: […].

The subject of a further test is gp120JR-FL/CD4-IgG2. Briefly: CCR5 Nt peptide ELISA with gp120JR-FL/CD4-IgG2. Type of test: binding, HIV-1. The following applies: for Avidity for gp120JR-FL/CD4-IgG2 relative to 2-18 (fold lower): ELISA; for Binding of gp120JR-FL/CD4-IgG2 to peptide (ELISA): peptide 1 μg/ml on streptavidin plate.
A further test relates to PA10 binding to CCR5. Briefly: Inhibition of anti-CCR5 MAb PA10 binding to L1.2-CCR5 cells. The test is classed as cell-based, mouse. Conditions: MAb 50 nM, peptide 100 μM. As for the experimental part:
L1.2-CCR5 cells (1×10^6) were incubated with anti-CCR5 MAb (50 nM)±peptide (100 μM). MAb binding was detected using a PE-labeled goat anti-mouse antibody (Caltag Laboratories, Burlingam, Calif.). The m.f.i value was measured by flow cytometry as described (Olson et al. J. Virol. 73:4145, 1999). MAb binding was calculated as above.

Another test deals with gp120JR-FL/sCD4. The experiment in a line: BIAcore: gp120JR-FL/sCD4 binding to immobilized biotinylated CCR5 Nt peptide. More on the design: species or system HIV-1. The following applies: protein 100 nM; 400 RU biotinylated peptide on streptavidin chip. As for the experimental part: (§1) Streptavidin-coated sensor chips (BIAcore AB, Sweden) were conditioned with five injections of regeneration solution (1M NaCl, 50 mM NaOH) and equilibrated with HBS-EP buffer (10 mM HEPES, 150 mM NaCl, […], 0.005% polysorbate 20) as recommended by the manufacturer. Biotinylated peptides were then immobilized on the chip by injection of peptide (100 nM) in HBS-EP buffer, followed by an injection of regeneration solution and equilibration with HBS-EP buffer. 400 resonance units (RU) of peptide were bound to the sensor chip surface. Solutions of the following proteins (100 nM) were passed over the sensor chip surface: gp120, sCD4, gp120/sCD4, PA8, PA10 and 2D7. […] Following injection of each solution the chip was regenerated and equilibrated as described above.
Biotinylated peptide was attached to the streptavidin-coated gold surface of a sensor chip and solutions containing different gp120/sCD4 complexes were flowed over the immobilized peptide. Adsorption of the complex due to complex/peptide binding was detected by an increase in surface plasmon resonance signal (RU), which reports changes in the effective refraction index very near the gold surface of the sensor chip (Schuck Ann. Rev. Biophys Biomol Struct 26:541, 1997). […]
Binding of gp120/CD4-IgG2 complex and MAbs to CCR5 Nt-based peptides was measured as previously described. […]
A general note: SPR reads the build-up and loss of mass on a sensor chip optically.

The next test concerns PA10. The experiment in a line: BIAcore: PA10 on immobilized peptide. Type of test: binding, mouse. Conditions: MAb 100 nM. As to the method: as §1

Entries after “also recorded” stand apart in the source; their conditions may differ. Where no end group is shown, it is not given here. [ ]: non-standard residue; d: D form. The star is where a group is joined. Biotin = O=C1N[C@H]2[C@H](CS[C@H]2CCCCC(=O)*)N1; sY = N[C@@H](Cc1ccc(OS(=O)(=O)O)cc1)C(=O)O; pY = N[C@@H](Cc1ccc(OP(=O)(O)O)cc1)C(=O)O

For the molecule RANTES: CC-chemokine known to bind CCR5, the “Inhibition of gp120JR-FL/CD4-IgG2 binding to the sulfopeptide 2-18” value (“Inhibition … to the sulfopeptide 2-18” below) in test [1] is “not inhibited”.
As for “S-10/14: tyrosine-sulfated peptide spanning amino acids 2-18 of the CCR5 Nt, sulfo-tyrosines in positions 10 and 14 (DYQVSSPI[sY]DIN[sY]YTSE; UniProt P51681 2-18, looked up, fragment)”, the “Inhibition of gp120JR-FL/CD4-IgG2 binding to CCR5+ cells” value in test [2] was “inhibited complex binding to the cells in a dose-dependent manner”.
As for MIP-1α: CC-chemokine known to bind CCR5, in test [1], the “Inhibition … to the sulfopeptide 2-18” value is “not inhibited”.
Take “6-16: CCR5 residues 6-16, sulfotyrosines in positions 10 and 14, GAG spacer, biotinylated lysine (SSPI[sY]DIN[sY]YTGAG-{K(biotin)}; UniProt P51681 6-16, looked up, fragment)”: in the test on gp120JR-FL/CD4-IgG2, the “Avidity for gp120JR-FL/CD4-IgG2 relative to 2-18 (fold lower)” value is recorded as “at least ten-fold less avidly”.
For the molecule “S-10: peptide spanning amino acids 2-18 of the CCR5 Nt, sulfo-tyrosine in position 10 (DYQVSSPI[sY]DINYYTSE; UniProt P51681 2-18, looked up, fragment)”, in test [2], the “Inhibition of gp120JR-FL/CD4-IgG2 binding to CCR5+ cells” value is listed as “no inhibitory activity”.
“S-14: peptide spanning amino acids 2-18 of the CCR5 Nt, sulfo-tyrosine in position 14 (DYQVSSPIYDIN[sY]YTSE; not fully specified; UniProt P51681 2-18, looked up, fragment)”: the “Inhibition of gp120JR-FL/CD4-IgG2 binding to CCR5+ cells” value in test [2] is recorded as “no inhibitory activity”.
For the molecule “10-18(11A/18A): peptide 10-18 with residues Asp-11 and Glu-18 substituted for alanines ([sY]AIN[sY]YTSA; not fully specified (C-terminus); UniProt P51681 10-18, looked up, variant D11A E18A)”, in the test with gp120JR-FL/CD4-IgG2, the “Binding of gp120JR-FL/CD4-IgG2 to peptide (ELISA)” value is “only weakly bound”.
Consider “S-3/10/14: tyrosine-sulfated peptide spanning amino acids 2-18 of the CCR5 Nt, sulfo-tyrosines in positions 3, 10 and 14 (D[sY]QVSSPI[sY]DIN[sY]YTSE; UniProt P51681 2-18, looked up, fragment)”, for which the “Inhibition of PA10 binding to CCR5+ cells” value in the test on PA10 binding to CCR5 is “inhibited”. The “Inhibition of gp120JR-FL/CD4-IgG2 binding to CCR5+ cells” value in test [2] is “inhibited complex binding to the cells in a dose-dependent manner”.
“10-18: CCR5 residues 10-18 (YDINYYTSE), sulfotyrosines in positions 10 and 14, GAG spacer, biotinylated lysine ([sY]DIN[sY]YTSEGAG-{K(biotin)})”: in the test with gp120JR-FL/CD4-IgG2, the “Avidity for gp120JR-FL/CD4-IgG2 relative to 2-18 (fold lower)” value was around 3 fold and the “Binding of gp120JR-FL/CD4-IgG2 to peptide (ELISA)” value was “significant binding; also recorded: avidly bound”.
Regarding “8-15: CCR5 residues 8-15, sulfotyrosines in positions 10 and 14, GAG spacer, biotinylated lysine (PI[sY]DIN[sY]YGAG-{K(biotin)}; UniProt P51681 8-15, looked up, fragment)”, in the test with gp120JR-FL/CD4-IgG2, the “Avidity for gp120JR-FL/CD4-IgG2 relative to 2-18 (fold lower)” value is given as “at least ten-fold less avidly”.
Consider “TS-10/14: peptide spanning amino acids 10-14 of CCR5, two sulfo-tyrosine residues ([sY]DIN[sY])”, for which the “Inhibition of gp120JR-FL/CD4-IgG2 binding to CCR5+ cells” value in test [2] was “did not inhibit”.
Consider “bP-10/14: biotinylated version of P-10/14 with C-terminal GAG spacer preceding a biotinylated lysine; apparently as 2-18(P) (DYQVSSPI[pY]DIN[pY]YTSEGAGK(Biotin))”, for which the “Association of gp120JR-FL/sCD4 complex with immobilized peptide (RU)” value in the test with gp120JR-FL/sCD4 is reported as “complete lack of association”.
Regarding “bS-10/14: biotinylated version of S-10/14 with C-terminal GAG spacer preceding a biotinylated lysine; apparently as 2-18 (DYQVSSPI[sY]DIN[sY]YTSEGAGK(Biotin))”, the “Association of PA10 with immobilized peptide (BIAcore)” value with PA10 is recorded as “associate”. Moreover, in the test on gp120JR-FL/sCD4, the “Association of gp120JR-FL/sCD4 complex with immobilized peptide (RU)” value is listed as “significant increase in RU”.

B1: MIP-1β: CC-chemokine known to bind CCR5 (protein, UniProt P13236 24-92, looked up)
C-C motif chemokine 4: APMGSDPPTACCFSYTARKLPRNFVVDYYETSSLCSQPAVVFQTKRSKQVCADPSESWVQEYVYDLELN
Turning to B1, the “Inhibition … to the sulfopeptide 2-18” value in test [1] is “not inhibited”.
